We go through 14 compounds from ChEMBL document CHEMBL4368895, “Incorporation of an intramolecular hydrogen bonding motif in the side chain of antimalarial benzimidazoles” (Medchemcomm, 2019).

Broadly, the IC50 is the concentration that inhibits the measured activity by half.

One data set concerns CHO. In words: Cytotoxicity in CHO cells assessed as reduction in cell viability by MTT assay. It counts as cell-based. To be noted: Cricetulus griseus. A general note: Formazan colour is commonly taken as a measure of viable cells.
The test system of data set [1] is Plasmodium falciparum. In words: Antiplasmodium activity against chloroquine-sensitive Plasmodium falciparum NF54 asexual blood stage forms infected in human erythrocytes assessed as reduction in [3H]-hypoxanthine incorporation incubated for 48 hrs by liquid scintillation counting method. It counts as functional, organism-based.
A short description of data set [2]: Selectivity index, ratio of IC50 for cytotoxicity in CHO cells to IC50 for antiplasmodium activity against chloroquine-sensitive Plasmodium falciparum NF54 asexual blood stage forms infected in human erythrocytes. It counts as toxicity, cell-based. To be noted: Chinese hamster, read-out: Ratio IC50.
The next data set relates to Hemozoin. The data set can be described thus: Inhibition of beta-hematin formation assessed as reduction in hemozoin formation incubated for 5 hrs by NP40 detergent-based assay.
For data set [3], the system named is Plasmodium falciparum. The data set can be described thus: Antiplasmodium activity against multidrug resistant Plasmodium falciparum K1 asexual blood stage forms infected in human erythrocytes assessed as reduction in [3H]-hypoxanthine incorporation incubated for 48 hrs by liquid scintillation counting method. It counts as functional, organism-based.
Data set [4] can be described thus: Kinetic solubility in pH 7.4 PBS at 0.125 to 8 mM incubated for 2 hrs by turbidimetric kinetic solubility assay. It counts as physicochemical. The note with it: read-out: Kinetic_solubility.

Each structure is given as a SMILES string. In brackets after ≈: the same amount, converted by molar mass. Some results are limits rather than exact numbers.

In the case of `CCN(CCNc1nc2ccccc2[nH]1)Cc1cc(OC)ccc1O`, the IC50 in the data set on CHO was determined as 50 µM; in the data set on Plasmodium falciparum [1], 0.32 µM; with Hemozoin, 489 µM; in the data set on Plasmodium falciparum [3] it was 3.04 µM. The selectivity ratio in data set [2] came out at 156. Also, the solubility kinetic at 2 h in data set [4] came out at 160 µM (≈ 54.5 µg/mL).
Turning to `CCN(CCNc1nc2ccccc2[nH]1)Cc1cc(C#N)ccc1O`, the IC50 is 50 µM with CHO, 0.968 µM with Plasmodium falciparum [1], 250 µM in the data set on Hemozoin and over 10 µM with Plasmodium falciparum [3]. Besides, the selectivity ratio in data set [2] is 52. Further, the solubility kinetic at 2 h in data set [4] was determined as 160 µM (≈ 53.7 µg/mL).
With `CCN(CCNc1nc2ccccc2[nH]1)Cc1cc(C)ccc1O`, the 50% inhibitory concentration (IC50) with CHO worked out at 24.5 µM; in the data set on Plasmodium falciparum [1] it was 0.408 µM; in the data set with Hemozoin, 4220 µM; with Plasmodium falciparum [3], 2.43 µM. Further, the selectivity ratio in data set [2] is 60. Also, in data set [4], the solubility kinetic at 2 h was over 200 µM.
Take `CCN(CCNc1nc2ccccc2[nH]1)Cc1cccc(F)c1O`: the 50% inhibitory concentration (IC50) in the data set with CHO worked out at 50 µM; in the data set on Plasmodium falciparum [1], 0.299 µM; with Hemozoin, 161 µM; in the data set on Plasmodium falciparum [3], 1.49 µM. Moreover, in data set [2], the selectivity ratio worked out at 167. Besides, in data set [4], the solubility kinetic at 2 h was 160 µM (≈ 52.5 µg/mL).
Take `CCN(CCNc1nc2ccccc2[nH]1)Cc1cc(Cl)ccc1O`: the IC50 was 25.1 µM with CHO, 0.11 µM in the data set with Plasmodium falciparum [1], 125 µM with Hemozoin and 0.762 µM in the data set on Plasmodium falciparum [3]. For the same compound, the selectivity ratio in data set [2] was 228. Also, the solubility kinetic at 2 h in data set [4] is 160 µM (≈ 55.2 µg/mL).
Take `CCN(CCNc1nc2ccccc2[nH]1)Cc1cc(Cl)cc(Cl)c1O`: the IC50 is 50 µM in the data set on CHO, 0.4 µM in the data set with Plasmodium falciparum [1], 30 µM in the data set on Hemozoin and 1.4 µM in the data set with Plasmodium falciparum [3]. Also, in data set [2], the selectivity ratio turned out to be 125. Further, the solubility kinetic at 2 h in data set [4] was 160 µM (≈ 60.7 µg/mL).
For `CCN(CCNc1nc2ccccc2[nH]1)Cc1ccc(Cl)cc1O`, the concentration for half-maximal inhibition (IC50) with CHO is 21.6 µM; in the data set on Plasmodium falciparum [1], 0.079 µM; with Hemozoin, 32 µM; with Plasmodium falciparum [3], 0.335 µM. The selectivity ratio in data set [2] worked out at 273. The solubility kinetic at 2 h in data set [4] amounted to 160 µM (≈ 55.2 µg/mL).
As for `CCN(CCNc1nc2ccccc2[nH]1)Cc1cc(F)cc(F)c1O`, the IC50 was found to be 50 µM with CHO, 0.222 µM in the data set with Plasmodium falciparum [1], 68 µM in the data set with Hemozoin and 0.952 µM with Plasmodium falciparum [3]. Moreover, the selectivity ratio in data set [2] amounted to 225. Moreover, the solubility kinetic at 2 h in data set [4] turned out to be 140 µM (≈ 48.5 µg/mL).
As for `CCN(CCNc1nc2ccccc2[nH]1)Cc1ccccc1O`, the IC50 in the data set with CHO came out at 50 µM; in the data set with Plasmodium falciparum [1], 0.474 µM; with Hemozoin, 452 µM; in the data set with Plasmodium falciparum [3], 2.66 µM. For the same compound, the selectivity ratio in data set [2] turned out to be 105. In addition, the solubility kinetic at 2 h in data set [4] was over 200 µM.
As to `CCN(CCNc1nc2ccccc2[nH]1)Cc1cccc(Cl)c1O`, the IC50 with CHO came to 50 µM; with Plasmodium falciparum [1], 0.521 µM; in the data set on Hemozoin, 130 µM; with Plasmodium falciparum [3], 1.25 µM. In data set [2], the selectivity ratio is 96. The solubility kinetic at 2 h in data set [4] stood at 160 µM (≈ 55.2 µg/mL).
Regarding `CCN(CCNc1nc2ccccc2[nH]1)Cc1cccnc1O`, the IC50 was 50 µM in the data set with CHO, over 10 µM in the data set with Plasmodium falciparum [1] and over 10 µM in the data set with Plasmodium falciparum [3]. Besides, in data set [4], the solubility kinetic at 2 h was over 200 µM.
Turning to `CCN(CCNc1nc2ccccc2[nH]1)Cc1ccccc1`, the IC50 in the data set on Plasmodium falciparum [1] came to 3.6 µM; with Plasmodium falciparum [3] it was 1.88 µM. The solubility kinetic at 2 h in data set [4] was 140 µM (≈ 41.2 µg/mL).
For the compound `C[C@H]1[C@H](OC(=O)CCC(=O)O)O[C@@H]2O[C@@]3(C)CC[C@H]4[C@H](C)CC[C@@H]1[C@@]24OO3` [ARTESUNATE], in the data set on Plasmodium falciparum [1], the IC50 came out at 0.007 µM.
With `CC[C@H]1CN2CCc3cc(OC)c(OC)cc3[C@@H]2C[C@@H]1C[C@H]1NCCc2cc(OC)c(OC)cc21` [EMETINE], the concentration for half-maximal inhibition (IC50) in the data set with CHO was 0.059 µM.
